# Assay results as given in PubChem BioAssay (NCI).
#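 Compound exposure: 48 hours, 5 concentrations, 96-well plates. TGI marks complete inhibition of growth.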
# Assays:
# Assay in all cases: growth of human tumour cells (NCI), 48 h
# 786-0 renal = test system: 786-0 renal
# A498 renal = test system: A498 renal
# A549 NSCLC = test system: A549 NSCLC
# ACHN renal = test system: ACHN renal
# BT-549 breast = test system: BT-549 breast
# CAKI-1 renal = test system: CAKI-1 renal
# CCRF-CEM leukemia = test system: CCRF-CEM leukemia
# COLO 205 colon = test system: COLO 205 colon
# DU-145 prostate = test system: DU-145 prostate
# EKVX NSCLC = test system: EKVX NSCLC
# HCC-2998 colon = test system: HCC-2998 colon
# HCT-116 colon = test system: HCT-116 colon
# HCT-15 colon = test system: HCT-15 colon
# HL-60(TB) leukemia = test system: HL-60(TB) leukemia
# HOP-62 NSCLC = test system: HOP-62 NSCLC
# HOP-92 NSCLC = test system: HOP-92 NSCLC
# HS 578T breast = test system: HS 578T breast
# HT29 colon = test system: HT29 colon
# IGROV1 ovarian = test system: IGROV1 ovarian
# K-562 leukemia = test system: K-562 leukemia
# KM12 colon = test system: KM12 colon
# LOX IMVI melanoma = test system: LOX IMVI melanoma
# M14 melanoma = test system: M14 melanoma
# MALME-3M melanoma = test system: MALME-3M melanoma
# MCF7 breast = test system: MCF7 breast
# MDA-MB-231 breast = test system: MDA-MB-231 breast
# MDA-MB-435 = test system: MDA-MB-435
# MDA-N = test system: MDA-N
# MOLT-4 leukemia = test system: MOLT-4 leukemia
# NCI-H226 lung = test system: NCI-H226 lung
# NCI-H23 lung = test system: NCI-H23 lung
# NCI-H460 lung = test system: NCI-H460 lung
# NCI-H522 lung = test system: NCI-H522 lung
# NCI/ADR-RES ovarian = test system: NCI/ADR-RES ovarian
# OVCAR-3 ovarian = test system: OVCAR-3 ovarian
# OVCAR-4 ovarian = test system: OVCAR-4 ovarian
# OVCAR-5 ovarian = test system: OVCAR-5 ovarian
# OVCAR-8 ovarian = test system: OVCAR-8 ovarian
# PC-3 prostate = test system: PC-3 prostate
# RPMI-8226 leukemia = test system: RPMI-8226 leukemia
# RXF 393 renal = test system: RXF 393 renal
# SF-268 CNS = test system: SF-268 CNS
# SF-295 CNS = test system: SF-295 CNS
# SF-539 CNS = test system: SF-539 CNS
# SK-MEL-2 melanoma = test system: SK-MEL-2 melanoma
# SK-MEL-28 melanoma = test system: SK-MEL-28 melanoma
# SK-MEL-5 melanoma = test system: SK-MEL-5 melanoma
# SK-OV-3 ovarian = test system: SK-OV-3 ovarian
# SN12C renal = test system: SN12C renal
# SNB-19 CNS = test system: SNB-19 CNS
# SNB-75 CNS = test system: SNB-75 CNS
# SR leukemia = test system: SR leukemia
# SW-620 colon = test system: SW-620 colon
# T-47D breast = test system: T-47D breast
# TK-10 renal = test system: TK-10 renal
# U251 CNS = test system: U251 CNS
# UACC-257 melanoma = test system: UACC-257 melanoma
# UACC-62 melanoma = test system: UACC-62 melanoma
# UO-31 renal = test system: UO-31 renal
# DLD-1 colon = test system: DLD-1 colon
# DMS 114 small cell lung = test system: DMS 114 small cell lung
# DMS 273 small cell lung = test system: DMS 273 small cell lung
# KM20L2 colon = test system: KM20L2 colon
# LXFL 529 NSCLC = test system: LXFL 529 NSCLC
# M19-MEL melanoma = test system: M19-MEL melanoma
# SNB-78 CNS = test system: SNB-78 CNS
# XF 498 CNS = test system: XF 498 CNS
smiles,measurement,setting,value
O=C1C(Cl)=C(Nc2ccc(S(=O)(=O)Nc3ccccn3)cc2)C(=O)c2ccccc21,TGI,786-0 renal,26.1 µM
same,TGI,A498 renal,45.1 µM
same,TGI,A549 NSCLC,41.9 µM
same,TGI,ACHN renal,31.2 µM
same,TGI,BT-549 breast,29.8 µM
same,TGI,CAKI-1 renal,> 52.1 µM
same,TGI,CCRF-CEM leukemia,> 25.5 µM
same,TGI,COLO 205 colon,27.8 µM
same,TGI,DU-145 prostate,25.9 µM
same,TGI,EKVX NSCLC,31.7 µM
same,TGI,HCC-2998 colon,24.8 µM
same,TGI,HCT-116 colon,18.8 µM
same,TGI,HCT-15 colon,23.2 µM
same,TGI,HL-60(TB) leukemia,> 50.5 µM
same,TGI,HOP-62 NSCLC,29.9 µM
same,TGI,HOP-92 NSCLC,15.4 µM
same,TGI,HS 578T breast,48 µM
same,TGI,HT29 colon,22.3 µM
same,TGI,IGROV1 ovarian,23.1 µM
same,TGI,K-562 leukemia,16.5 µM
same,TGI,KM12 colon,32.4 µM
same,TGI,LOX IMVI melanoma,4.59 µM
same,TGI,M14 melanoma,15.4 µM
same,TGI,MALME-3M melanoma,7.6 µM
same,TGI,MCF7 breast,12.9 µM
same,TGI,MDA-MB-231 breast,22 µM
same,TGI,MDA-MB-435,14 µM
same,TGI,MDA-N,13.9 µM
same,TGI,MOLT-4 leukemia,25.5 µM
same,TGI,NCI-H226 lung,42.1 µM
same,TGI,NCI-H23 lung,25.2 µM
same,TGI,NCI-H460 lung,19.2 µM
same,TGI,NCI-H522 lung,13.7 µM
same,TGI,NCI/ADR-RES ovarian,> 40.9 µM
same,TGI,OVCAR-3 ovarian,15.6 µM
same,TGI,OVCAR-4 ovarian,> 53.6 µM
same,TGI,OVCAR-5 ovarian,> 46.9 µM
same,TGI,OVCAR-8 ovarian,15.9 µM
same,TGI,PC-3 prostate,27 µM
same,TGI,RPMI-8226 leukemia,15.4 µM
same,TGI,RXF 393 renal,22.6 µM
same,TGI,SF-268 CNS,29.3 µM
same,TGI,SF-295 CNS,35.2 µM
same,TGI,SF-539 CNS,10.3 µM
same,TGI,SK-MEL-2 melanoma,15.3 µM
same,TGI,SK-MEL-28 melanoma,42.9 µM
same,TGI,SK-MEL-5 melanoma,11.4 µM
same,TGI,SK-OV-3 ovarian,43 µM
same,TGI,SN12C renal,30.4 µM
same,TGI,SNB-19 CNS,38.7 µM
same,TGI,SNB-75 CNS,21.9 µM
same,TGI,SR leukemia,16.2 µM
same,TGI,SW-620 colon,> 73.5 µM
same,TGI,T-47D breast,39.7 µM
same,TGI,TK-10 renal,22.7 µM
same,TGI,U251 CNS,19.3 µM
same,TGI,UACC-257 melanoma,10.3 µM
same,TGI,UACC-62 melanoma,11.8 µM
same,TGI,UO-31 renal,29 µM
CC(C)OP(=O)(NC(=S)c1ccccc1)OC(C)C,TGI,786-0 renal,> 100 µM
same,TGI,A498 renal,> 100 µM
same,TGI,A549 NSCLC,> 100 µM
same,TGI,ACHN renal,> 100 µM
same,TGI,CAKI-1 renal,> 100 µM
same,TGI,CCRF-CEM leukemia,> 100 µM
same,TGI,COLO 205 colon,> 100 µM
same,TGI,DLD-1 colon,> 100 µM
same,TGI,DMS 114 small cell lung,> 100 µM
same,TGI,DMS 273 small cell lung,> 100 µM
same,TGI,EKVX NSCLC,> 100 µM
same,TGI,HCC-2998 colon,> 100 µM
same,TGI,HCT-116 colon,> 100 µM
same,TGI,HCT-15 colon,> 100 µM
same,TGI,HOP-92 NSCLC,> 100 µM
same,TGI,HT29 colon,> 100 µM
same,TGI,IGROV1 ovarian,> 100 µM
same,TGI,K-562 leukemia,> 100 µM
same,TGI,KM12 colon,> 100 µM
same,TGI,KM20L2 colon,> 100 µM
same,TGI,LOX IMVI melanoma,> 100 µM
same,TGI,LXFL 529 NSCLC,> 100 µM
same,TGI,M14 melanoma,> 100 µM
same,TGI,M19-MEL melanoma,> 100 µM
same,TGI,MALME-3M melanoma,> 100 µM
same,TGI,MOLT-4 leukemia,> 100 µM
same,TGI,NCI-H226 lung,> 100 µM
same,TGI,NCI-H23 lung,> 100 µM
same,TGI,NCI-H460 lung,> 100 µM
same,TGI,OVCAR-3 ovarian,> 100 µM
same,TGI,OVCAR-4 ovarian,> 100 µM
same,TGI,OVCAR-5 ovarian,> 100 µM
same,TGI,OVCAR-8 ovarian,> 100 µM
same,TGI,SF-268 CNS,> 100 µM
same,TGI,SF-295 CNS,> 100 µM
same,TGI,SF-539 CNS,> 100 µM
same,TGI,SK-MEL-2 melanoma,> 100 µM
same,TGI,SK-MEL-28 melanoma,> 100 µM
same,TGI,SK-MEL-5 melanoma,> 100 µM
same,TGI,SK-OV-3 ovarian,> 100 µM
same,TGI,SN12C renal,> 100 µM
same,TGI,SNB-19 CNS,> 100 µM
same,TGI,SNB-75 CNS,> 100 µM
same,TGI,SNB-78 CNS,> 100 µM
same,TGI,SW-620 colon,> 100 µM
same,TGI,TK-10 renal,> 100 µM
same,TGI,U251 CNS,> 100 µM
same,TGI,UACC-257 melanoma,> 100 µM
same,TGI,UACC-62 melanoma,> 100 µM
same,TGI,UO-31 renal,> 100 µM
same,TGI,XF 498 CNS,> 100 µM
O=C(Nc1ccc([N+](=O)[O-])cc1Cl)c1cccc([N+](=O)[O-])c1O,TGI,A498 renal,3.66 µM
same,TGI,A549 NSCLC,7.31 µM
same,TGI,ACHN renal,48.1 µM
same,TGI,CAKI-1 renal,5.21 µM
same,TGI,CCRF-CEM leukemia,> 100 µM
same,TGI,EKVX NSCLC,6.54 µM
same,TGI,HCC-2998 colon,20.9 µM
same,TGI,HL-60(TB) leukemia,5.43 µM
same,TGI,HT29 colon,79.7 µM
same,TGI,K-562 leukemia,12.5 µM
same,TGI,KM12 colon,15.3 µM
same,TGI,KM20L2 colon,10.2 µM
same,TGI,LOX IMVI melanoma,14.5 µM
same,TGI,LXFL 529 NSCLC,13.6 µM
same,TGI,MALME-3M melanoma,4.73 µM
same,TGI,MOLT-4 leukemia,28.3 µM
same,TGI,NCI-H226 lung,9.31 µM
same,TGI,NCI-H23 lung,4.01 µM
same,TGI,NCI-H460 lung,13.3 µM
same,TGI,NCI-H522 lung,4.32 µM
same,TGI,OVCAR-4 ovarian,45.3 µM
same,TGI,OVCAR-5 ovarian,> 100 µM
same,TGI,RPMI-8226 leukemia,5.78 µM
same,TGI,SF-268 CNS,27.3 µM
same,TGI,SF-295 CNS,6.26 µM
same,TGI,SF-539 CNS,10.9 µM
same,TGI,SK-MEL-2 melanoma,6.1 µM
same,TGI,SK-MEL-28 melanoma,19.4 µM
same,TGI,SN12C renal,8.09 µM
same,TGI,SNB-19 CNS,> 100 µM
same,TGI,SNB-78 CNS,9.75 µM
same,TGI,SR leukemia,18.9 µM
same,TGI,SW-620 colon,> 100 µM
same,TGI,U251 CNS,> 100 µM
same,TGI,UACC-257 melanoma,6.95 µM
same,TGI,UO-31 renal,5.58 µM
CC(=O)O[C@H]1C(=O)[C@@]2(C)C(C(OC(=O)c3ccccc3)C3[C@@H](O)C(OC(=O)[C@@H](O)[C@H](NC(=O)c4ccccc4)c4ccc(C(F)(F)F)cc4)C(C)=C1C3(C)C)[C@]1(OC(C)=O)CO[C@@H]1C[C@@H]2O (stereo partly drawn),TGI,786-0 renal,> 25 µM
same,TGI,A549 NSCLC,> 25 µM
same,TGI,ACHN renal,> 25 µM
same,TGI,CAKI-1 renal,> 25 µM
same,TGI,CCRF-CEM leukemia,> 25 µM
same,TGI,COLO 205 colon,> 25 µM
same,TGI,DLD-1 colon,> 25 µM
same,TGI,DMS 114 small cell lung,> 25 µM
same,TGI,DMS 273 small cell lung,> 25 µM
same,TGI,EKVX NSCLC,> 25 µM
same,TGI,HCC-2998 colon,> 25 µM
same,TGI,HCT-116 colon,> 25 µM
same,TGI,HCT-15 colon,> 25 µM
same,TGI,HL-60(TB) leukemia,> 25 µM
same,TGI,HOP-62 NSCLC,> 25 µM
same,TGI,HT29 colon,> 25 µM
same,TGI,IGROV1 ovarian,> 25 µM
same,TGI,K-562 leukemia,> 25 µM
same,TGI,KM20L2 colon,> 25 µM
same,TGI,LOX IMVI melanoma,> 25 µM
same,TGI,LXFL 529 NSCLC,> 25 µM
same,TGI,M14 melanoma,> 25 µM
same,TGI,M19-MEL melanoma,> 25 µM
same,TGI,MALME-3M melanoma,> 25 µM
same,TGI,MOLT-4 leukemia,> 25 µM
same,TGI,NCI-H226 lung,> 25 µM
same,TGI,NCI-H23 lung,> 25 µM
same,TGI,NCI-H460 lung,> 25 µM
same,TGI,NCI-H522 lung,21.1 µM
same,TGI,OVCAR-3 ovarian,> 25 µM
same,TGI,OVCAR-5 ovarian,> 25 µM
same,TGI,OVCAR-8 ovarian,> 25 µM
same,TGI,RPMI-8226 leukemia,> 25 µM
same,TGI,RXF 393 renal,> 25 µM
same,TGI,SF-268 CNS,> 25 µM
same,TGI,SF-295 CNS,> 25 µM
same,TGI,SF-539 CNS,> 25 µM
same,TGI,SK-MEL-2 melanoma,> 25 µM
same,TGI,SK-MEL-28 melanoma,> 25 µM
same,TGI,SK-MEL-5 melanoma,> 25 µM
same,TGI,SK-OV-3 ovarian,> 25 µM
same,TGI,SN12C renal,> 25 µM
same,TGI,SNB-19 CNS,> 25 µM
same,TGI,SNB-75 CNS,> 25 µM
same,TGI,SNB-78 CNS,> 25 µM
same,TGI,SR leukemia,> 25 µM
same,TGI,SW-620 colon,> 25 µM
same,TGI,TK-10 renal,> 25 µM
same,TGI,U251 CNS,> 25 µM
same,TGI,UACC-257 melanoma,> 25 µM
same,TGI,UACC-62 melanoma,> 25 µM
same,TGI,UO-31 renal,> 25 µM
